Assay results reported in patent publication US20070128217A1 (priority 2003, published 2007).

Tests used:
[1] = tested on: recombinant human anti-SARS-CoV antibody 03-018; assay type: binding; parameters: Binding of antibody 03-018 to linear peptides of the N protein of SARS-CoV Urbani / Binding of antibody 03-018 to looped/cyclic peptides of the N protein of SARS-CoV Urbani: unit not given here
[2] = tested on: antibodies in sera from SARS patients (sera 1a, 1b, 2, 6, 37, 62, London, SARS-yellow, SARS-green); assay type: binding, human; parameters: Binding of serum 6 to linear peptides of protein X1 of SARS-CoV Urbani / Binding of serum 37 to linear peptides of protein X1 of SARS-CoV Urbani / Binding of serum 6 to looped/cyclic peptide (PEPSCAN-ELISA) / Binding of serum 37 to looped/cyclic peptide (PEPSCAN-ELISA) / Binding of serum 37 to looped/cyclic peptides of protein X1 of SARS-CoV Urbani / Binding of serum 6 to linear peptides of protein X2 / Binding of serum 37 to linear peptides of protein X2 / Binding of serum 37 to looped/cyclic peptides of protein X2 of SARS-CoV Urbani / Binding of serum 6 to linear peptides of protein M of SARS-CoV Urbani / Binding of serum 37 to linear peptides of protein M of SARS-CoV Urbani / Binding of serum 6 to looped/cyclic peptides of protein M of SARS-CoV Urbani / Binding of serum 37 to looped/cyclic peptides of protein M of SARS-CoV Urbani / Binding of serum 6 to linear peptides of protein X3 of SARS-CoV Urbani / Binding of serum 37 to linear peptides of protein X3 of SARS-CoV Urbani / Binding of serum 37 to looped/cyclic peptides of protein X3 of SARS-CoV Urbani / Binding of serum 6 to linear peptides of protein X4 of SARS-CoV Urbani / Binding of serum 37 to linear peptides of protein X4 of SARS-CoV Urbani / Binding of serum 37 to looped/cyclic peptides of protein X4 of SARS-CoV Urbani / Binding of serum 6 to linear peptides of protein X5 of SARS-CoV Urbani / Binding of serum 37 to linear peptides of protein X5 of SARS-CoV Urbani / Binding of serum 37 to looped/cyclic peptides of protein X5 of SARS-CoV Urbani / Binding of serum 6 to linear peptides of protein N of SARS-CoV Urbani / Binding of serum 37 to linear peptides of protein N of SARS-CoV Urbani / Binding of serum 6 to linear peptide (PEPSCAN-ELISA) / Binding of serum 1a to looped/cyclic peptides of protein N of SARS-CoV Urbani / Binding of serum 1b to looped/cyclic peptides of protein N of SARS-CoV Urbani / Binding of serum 2 to looped/cyclic peptides of protein N of SARS-CoV Urbani / Binding of serum 6 to looped/cyclic peptides of protein N of SARS-CoV Urbani / Binding of serum 37 to looped/cyclic peptides of protein N of SARS-CoV Urbani / Binding of serum 62 to looped/cyclic peptides of protein N of SARS-CoV Urbani / Binding of serum London to looped/cyclic peptides of protein N of SARS-CoV Urbani / Binding of serum SARS-green to looped/cyclic peptides of protein N of SARS-CoV Urbani: unit not given here
[3] = tested on: rabbit serum obtained by immunizing a rabbit with the SARS-CoV strain Frankfurt 1; assay type: binding; parameters: Binding of a rabbit serum to linear peptides / Binding of a rabbit serum to looped peptides / Rabbit serum linear peptides / Rabbit serum looped peptides / Binding of a rabbit serum to linear peptides of protein N of SARS-CoV Urbani (Rabbit serum linear peptides) / Binding of a rabbit serum to looped/cyclic peptides of protein N of SARS-CoV Urbani (Rabbit serum looped peptides): unit not given here
[4] = tested on: control sera (pooled serum of ten healthy LUMC hospital workers; commercial negative donor pooled serum from the Dutch bloodbank); assay type: binding, human; parameters: Binding of Control serum LUMC to linear peptides / Binding of Control serum Blood-bank to linear peptides / Binding of Control serum LUMC to looped peptides / Binding of Control Serum Blood-Bank to Looped peptides / Binding of Control serum LUMC to linear peptides of the protein M of SARS-CoV Urbani / Binding of Control serum Blood-bank to linear peptides of the protein M of SARS-CoV Urbani / Binding of Control serum LUMC to looped peptides of the protein M of SARS-CoV Urbani / Binding of Control Serum Blood-Bank to Looped peptides of the protein M of SARS-CoV Urbani: unit not given here

Sequence | Binding of antibody 03-018 to linear peptides of the N protein of SARS-CoV Urbani [1] | Binding of antibody 03-018 to looped/cyclic peptides of the N protein of SARS-CoV Urbani [1] | Binding of serum 1a to linear peptide (PEPSCAN-ELISA) [2] | Binding of serum 1a to looped/cyclic peptides of protein N of SARS-CoV Urbani [2] | Binding of serum 1b to linear peptide (PEPSCAN-ELISA) [2] | Binding of serum 1b to looped/cyclic peptides of protein N of SARS-CoV Urbani [2] | Binding of serum 2 to linear peptide (PEPSCAN-ELISA) [2] | Binding of serum 2 to looped/cyclic peptides of protein N of SARS-CoV Urbani [2] | Binding of serum 6 to linear peptide (PEPSCAN-ELISA) [2] | Binding of serum 6 to looped/cyclic peptides of protein N of SARS-CoV Urbani [2] | Binding of serum 37 to linear peptide (PEPSCAN-ELISA) [2] | Binding of serum 37 to looped/cyclic peptides of protein N of SARS-CoV Urbani [2] | Binding of serum 62 to linear peptide (PEPSCAN-ELISA) [2] | Binding of serum 62 to looped/cyclic peptides of protein N of SARS-CoV Urbani [2] | Binding of serum London to linear peptide (PEPSCAN-ELISA) [2] | Binding of serum London to looped/cyclic peptides of protein N of SARS-CoV Urbani [2] | Binding of serum SARS-green to linear peptide (PEPSCAN-ELISA) [2] | Binding of serum SARS-green to looped/cyclic peptides of protein N of SARS-CoV Urbani [2] | Binding of serum SARS-yellow to linear peptide (PEPSCAN-ELISA) [2] | Binding of serum SARS-yellow to looped/cyclic peptides of protein N of SARS-CoV Urbani [2] | other results
SRSSSRSRGNSRNST | 0.1 | 0.2 | 0.2 | 0.3 | 0.1 | 0.2 | 0.2 | 0.3 | 0.2 | 0.3 | 0.4 | 0.5 | 0.6 | 0.4 | 0.4 | 0.4 | 0.2 | 0.2 | 0.7 | 0.4 | Binding of a rabbit serum to linear peptides of protein N of SARS-CoV Urbani (Rabbit serum linear peptides) [3]: 0.1; Binding of a rabbit serum to looped/cyclic peptides of protein N of SARS-CoV Urbani (Rabbit serum looped peptides) [3]: 0.3; Binding of Control Serum Blood-Bank to Looped peptides [4]: 0.6; Binding of Control serum Blood-bank to linear peptides [4]: 0.7; Binding of Control serum LUMC to linear peptides [4]: 0.7; Binding of Control serum LUMC to looped peptides [4]: 0.6
SSRGNSPARMASGGG | 0.1 | 0.2 | 0.4 | 0.4 | 0.3 | 0.2 | 0.2 | 0.5 | 0.2 | 0.4 | 0.5 | 0.4 | 0.6 | 0.5 | 0.5 | 0.8 | 1.0 | 0.6 | 0.7 | 0.5 | Binding of a rabbit serum to linear peptides of protein N of SARS-CoV Urbani (Rabbit serum linear peptides) [3]: 0.2; Binding of a rabbit serum to looped/cyclic peptides of protein N of SARS-CoV Urbani (Rabbit serum looped peptides) [3]: 0.0; Binding of Control Serum Blood-Bank to Looped peptides [4]: 0.8; Binding of Control serum Blood-bank to linear peptides [4]: 0.8; Binding of Control serum LUMC to linear peptides [4]: 0.9; Binding of Control serum LUMC to looped peptides [4]: 0.9
SSRSRGNSRNSTPGS | 0.1 | 0.2 | 0.8 | 0.3 | 0.5 | 0.1 | 0.1 | 0.3 | 0.2 | 0.1 | 0.6 | 0.4 | 0.5 | 0.3 | 0.4 | 0.3 | 0.1 | 0.0 | 0.5 | 0.1 | Binding of a rabbit serum to linear peptides of protein N of SARS-CoV Urbani (Rabbit serum linear peptides) [3]: 0.1; Binding of a rabbit serum to looped/cyclic peptides of protein N of SARS-CoV Urbani (Rabbit serum looped peptides) [3]: 0.0; Binding of Control Serum Blood-Bank to Looped peptides [4]: 0.5; Binding of Control serum Blood-bank to linear peptides [4]: 0.6; Binding of Control serum LUMC to linear peptides [4]: 0.5; Binding of Control serum LUMC to looped peptides [4]: 0.5
SSRSSSRSRGNSRNS | 0.1 | 0.2 | 0.2 | 0.3 | 0.1 | 0.3 | 0.2 | 0.4 | 0.2 | 0.3 | 0.5 | 0.5 | 0.6 | 0.6 | 0.5 | 0.5 | 0.3 | 0.3 | 0.7 | 0.4 | Binding of a rabbit serum to linear peptides of protein N of SARS-CoV Urbani (Rabbit serum linear peptides) [3]: 0.2; Binding of a rabbit serum to looped/cyclic peptides of protein N of SARS-CoV Urbani (Rabbit serum looped peptides) [3]: 0.7; Binding of Control Serum Blood-Bank to Looped peptides [4]: 0.7; Binding of Control serum Blood-bank to linear peptides [4]: 0.7; Binding of Control serum LUMC to linear peptides [4]: 0.7; Binding of Control serum LUMC to looped peptides [4]: 0.7
SSSRSRGNSRNSTPG | 0.1 | 0.2 | 0.4 | 0.2 | 0.2 | 0.1 | 0.2 | 0.3 | 0.1 | 0.2 | 0.5 | 0.4 | 0.5 | 0.3 | 0.5 | 0.3 | 0.2 | 0.1 | 0.6 | 0.1 | Binding of a rabbit serum to linear peptides of protein N of SARS-CoV Urbani (Rabbit serum linear peptides) [3]: 0.1; Binding of a rabbit serum to looped/cyclic peptides of protein N of SARS-CoV Urbani (Rabbit serum looped peptides) [3]: 0.4; Binding of Control Serum Blood-Bank to Looped peptides [4]: 0.5; Binding of Control serum Blood-bank to linear peptides [4]: 0.7; Binding of Control serum LUMC to linear peptides [4]: 0.6; Binding of Control serum LUMC to looped peptides [4]: 0.5
